Patent publication US3955959A, “Herbicide for use in transplanted rice” (priority 1974, dated 1976)
“And” between values parts separate entries of the source, which are not always exact repeats. Identical values can stand only once.

Legend:
[1] = tested on: Monochoria vaginalis; assay: Example 2 field test, weed control, Chia Yi, Taiwan; assay type: in vivo; conditions: obs. 63 DAT
Protocol: In the field tests of the herbicide of this invention with transplanted rice, the rice seedlings were grown in conventional manner, by seeding the rice in a typical seedbed of sandy loam to clay soil of the country wherein the test was conducted. For laboratory and greenhouse work the seedlings were obtained by seeding rice in a mixture of soil, e.g., Ray silt loam, and peat in wood flats. For purposes of testing the herbicides on younger rice seedlings (infant or Dapog) the rice was usually allowed to grow for 6-15 days before lifting for transplanting. Older (ordinary) rice plants were usually grown for a period of about 2-3 weeks, or as much as about 7 weeks before lifting. Since the period of growth is dependent upon climatic conditions, a better measure of when to transplant the rice seedling is the leaf stage of growth; for infant or Dapog rice the seedling is lifted at the 1.5-2 leaf stage of growth, and for ordinary seedlings at the 2.5-5 leaf stage. The seedlings were then transplanted to the test plots for evaluation of the herbicide for injury against weed species present with the transplanted rice. The herbicides were then applied to the growth medium of the weeds and transplant rice, either preemergent or postemergent with respect to the weeds and postemergent with respect to the transplanted rice. […] Application rates given in the tables refer to the amount of active ingredient used.

[2] = tested on: weeds Ec, Ann. Cyp, Mv, Obw, Ea; assay: Example 5 field test, average weed control, JAAPR, Japan
Protocol: (§1) In the tests described in the tables below, the herbicides were formulated and used in granular form in conventional manner. […] The commercial herbicide used was a granular product having 5% active ingredient.
(§2) In the field tests of the herbicide of this invention with transplanted rice, the rice seedlings were grown in conventional manner, by seeding the rice in a typical seedbed of sandy loam to clay soil of the country wherein the test was conducted. For laboratory and greenhouse work the seedlings were obtained by seeding rice in a mixture of soil, e.g., Ray silt loam, and peat in wood flats. For purposes of testing the herbicides on younger rice seedlings (infant or Dapog) the rice was usually allowed to grow for 6-15 days before lifting for transplanting. Older (ordinary) rice plants were usually grown for a period of about 2-3 weeks, or as much as about 7 weeks before lifting. Since the period of growth is dependent upon climatic conditions, a better measure of when to transplant the rice seedling is the leaf stage of growth; for infant or Dapog rice the seedling is lifted at the 1.5-2 leaf stage of growth, and for ordinary seedlings at the 2.5-5 leaf stage. The seedlings were then transplanted to the test plots for evaluation of the herbicide for injury against weed species present with the transplanted rice. The herbicides were then applied to the growth medium of the weeds and transplant rice, either preemergent or postemergent with respect to the weeds and postemergent with respect to the transplanted rice. Application times are designated in the tables as "DAT", meaning "days after transplant". Application rates given in the tables refer to the amount of active ingredient used.
(§3) The rice seedlings were grown to the 1.7 leaf stage for infant seedlings and to the 5.5 leaf stage for ordinary seedlings. Two days after puddling the soil in which the seedlings were to be transplanted, both infant and ordinary seedlings were transplanted into plots 8.5 m^2.
(§4) The weed symbol "Obw" represents "other broadleaf weeds" of unspecified identity. Results presented in Table 5 represent the average of 2 replications.

[3] = tested on: Ann. Cyp (Cyperus spp); assay: Example 5 field test, weed control, JAAPR, Japan
Protocol: as §1, §2, §3, §4

[4] = tested on: weeds in upland direct-seeded rice; assay: Example 7 overall; assay type: in vivo; conditions: direct-seeded rice cultures
Protocol: In a further comparative study of the preemergence activity of Herbicides A and B, a variety of weeds and upland direct-seeded rice were tested under greenhouse conditions. The present invention is not concerned with the use of Herbicide A in direct-seeded rice. The primary purpose of the experimental work in this example is to compare relative herbicidal activity of Herbicides A and B against the weeds shown in Table 7; most of these weeds were not available for tests with transplanted rice. Although the relative selectivity of these herbicides in upland rice is also evident, that aspect of the tests is more or less incidental to the purpose of this example.
In this example, rice seeds and seeds of the weeds shown in Table 7 were sown in Ray silt loam soil at a depth of 0.5 inch (1.27 cm) in containers for the soil in a greenhouse. Herbicides A and B were applied to the surface of the soil at a spray volume equivalent to 20 gals/acre (187.1 liters/hectare), followed by 0.5 in (1.27 cm) of overhead irrigation. Temperature and relative humidity in the greenhouse were on the order of 85°F (29°C) and 75%, respectively. Observations were made at 21-28 days after seeding. […]

[5] = tested on: ordinary transplanted rice; assay: Example 4 field test, rice yield; assay type: in vivo, rice (Fortuna variety); conditions: in vivo
Protocol: as §1, §2
(§5) In this example comparative field tests were conducted with Herbicides A and B on ordinary transplanted rice at Munoz, Philippines.
(§6) Twenty-one (21) day-old ordinary wet bed seedlings of the Fortuna variety were transplanted to field plots and Herbicides A and B applied at 5 DAT and 14 DAT. The field plots were overseeded with barnyardgrass (E. crusgalli) at 2 kgs/ha. Treatments were replicated four times.

[6] = tested on: transplanted rice; assay: Example 2 field test, rice yield; assay type: in vivo, rice (Tainan No. 5, japonica); conditions: in vivo
Protocol: as §1, §2
Rice seedlings (ordinary) of Tainan No. 5 variety (japonica) were transplanted at 19 days of growth. Granular formulations of Herbicides A and B were applied at the 1 leaf stage of grass weed (4 DAT) and 2.5 leaf stage of grass weed (10 DAT). Observations were made at 63 DAT and results reported in Table 2 as an average of 3 replications.

[7] = tested on: transplanted rice (ordinary and infant seedlings); assay: Example 5 field test, rice injury
Protocol: as §1, §2, §3, §4

[8] = tested on: ordinary transplanted rice; assay: Example 4 field test, crop injury; conditions: obs. 36 DAT
Protocol: as §1, §2, §5, §6

[9] = tested on: Dapog transplanted rice; assay: Example 3 field test, rice yield; assay type: in vivo; conditions: in vivo
Protocol: as §1, §2
Eleven (11) day-old Dapog seedlings were transplanted and treated at 5 DAT and 14 DAT with Herbicides A and B. The plots were overseeded with Echinochloa crusgalli seeds at 2 kgs/ha prior to transplanting. Treatments were replicated four times.

[10] = tested on: Broadleaf: Mv, Sz (Monochoria vaginalis, Sphenoclea zeylanica); assay: Example 3 field test on Dapog rice, weed control, Munoz, Philippines; assay type: in vivo, Monochoria vaginalis and Sphenoclea zeylanica; conditions: obs. 42 DAT
Text: Treatments were replicated four times.

[11] = 1.0 kg/ha, 15 DAT, infant seedlings
[12] = 1.0 kg/ha, 15 DAT, ordinary seedlings
[13] = .25 kg/ha, 2 DAT, infant seedlings
[14] = .25 kg/ha, 2 DAT, ordinary seedlings
[15] = .5 kg/ha, 7 DAT, infant seedlings
[16] = .5 kg/ha, 7 DAT, ordinary seedlings

Question: How did the “% Weed Control (Monochoria Vaginalis)” value ([1]; 4 DAT, 1.0 kg/ha) turn out when `CCCCOCN(C(=O)CCl)c1c(C)cccc1C(C)(C)C` [Herbicide A, n-(butoxymethyl)-6'-tert-butyl-2-chloro-o-acetotoluidide] was run?
Answer: 100%

Question: And the “% Weed Control (Monochoria Vaginalis)” value ([1]; 4 DAT, 2.0 kg/ha)?
Answer: 100%

Question: And the “% Weed Control (Monochoria Vaginalis)” value ([1]; 4 DAT, .25 kg/ha)?
Answer: 80%

Question: And the “% Weed Control (Monochoria Vaginalis)” value ([1]; 4 DAT, .5 kg/ha)?
Answer: 99%

Question: What about the “% Weed Control (Monochoria Vaginalis)” value ([1]; 10 DAT, 1.0 kg/ha) of the same molecule?
Answer: 99%

Question: And the “% Weed Control (Monochoria Vaginalis)” value ([1]; 10 DAT, 2.0 kg/ha)?
Answer: 99%

Question: And the “% Weed Control (Monochoria Vaginalis)” value ([1]; 10 DAT, .25 kg/ha)?
Answer: 35%

Question: What about the “% Weed Control (Monochoria Vaginalis)” value ([1]; 10 DAT, .5 kg/ha) of the same molecule?
Answer: 87%

Question: What about the “weed control vs Herbicide B at 1.5 kg/ha 7 DAT” value ([2]; 0.25 kg/ha, 2 DAT, Ec, Ann. Cyp, Obw and average, ordinary and infant) of the same molecule?
Answer: equal to or superior

Question: And the “% Weed Control, Avg.” value [2, 11]?
Answer: 90%

Question: What about the “% Weed Control, Avg.” value [2, 12] of the same molecule?
Answer: 90%

Question: What about the “% Weed Control, Avg.” value [2, 13] of the same molecule?
Answer: 93%

Question: And the “% Weed Control, Avg.” value [2, 14]?
Answer: 92%

Question: What about the “% Weed Control, Avg.” value [2, 15] of the same molecule?
Answer: 81%

Question: What about the “% Weed Control, Avg.” value [2, 16] of the same molecule?
Answer: 84%

Question: What about the “fold more active than Herbicide B” value ([2]; average weed control, 7 DAT) of the same molecule?
Answer: at least 3 fold

Question: What about the “control of Ann. Cyp in words” value ([3]; 0.25 kg/ha both plots, 1.0 kg/ha ordinary) of the same molecule?
Answer: controlled completely

Question: What about the “% Weed Control (Ann. Cyp)” value [3, 11] of the same molecule?
Answer: 100%

Question: What about the “% Weed Control (Ann. Cyp)” value [3, 12] of the same molecule?
Answer: 100%

Question: And the “control of Ann. Cyp in words” value ([3]; 1.0 kg/ha, infant seedling plots)?
Answer: controlled

Question: What about the “% Weed Control (Ann. Cyp)” value [3, 13] of the same molecule?
Answer: 100%

Question: And the “% Weed Control (Ann. Cyp)” value [3, 14]?
Answer: 100%

Question: What about the “% Weed Control (Ann. Cyp)” value [3, 15] of the same molecule?
Answer: 75%

Question: And the “% Weed Control (Ann. Cyp)” value [3, 16]?
Answer: 80%

Question: What about the “activity vs Herbicide B in direct-seeded rice” value [4] of the same molecule?
Answer: significantly more active

Question: And the “Yield (% of H.W. Check)” value [5]?
Answer: 129% and 136% and 123% and 101% and 90% and 97% and 100%

Question: And the “rice yield vs hand weeded check” value [5]?
Answer: only slightly lower than the hand weeded check

Question: What about the “rice yield vs hand weeded control” value [5] of the same molecule?
Answer: slightly more than the hand weeded control

Question: What about the “Yield (% of H.W. Check)” value [6] of the same molecule?
Answer: 97% and 105% and 107% and 81% and 91% and 100% and 73%

Question: And the rice yield depression [6]?
Answer: rice yield depression

Question: And the Injury [7, 11]?
Answer: 0

Question: And the Injury [7, 12]?
Answer: 0

Question: And the Injury [7, 13]?
Answer: 0

Question: And the Injury [7, 14]?
Answer: 0

Question: What about the Injury [7, 15] of the same molecule?
Answer: 0

Question: And the Injury [7, 16]?
Answer: 0

Question: What about the “injury to seedlings in words” value ([7]; ordinary and infant seedlings) of the same molecule?
Answer: Injury to neither ordinary nor infant seedlings occurred

Question: And the “Crop Injury (%)” value ([8]; 5 DAT, 1.0 kg/ha)?
Answer: 0%

Question: And the “Crop Injury (%)” value ([8]; 5 DAT, 2.0 kg/ha)?
Answer: 60%

Question: What about the “Crop Injury (%)” value ([8]; 5 DAT, .25 kg/ha) of the same molecule?
Answer: 0%

Question: And the “Crop Injury (%)” value ([8]; 5 DAT, .5 kg/ha)?
Answer: 0%

Question: What about the “Crop Injury (%)” value ([8]; 14 DAT, 1.0 kg/ha) of the same molecule?
Answer: 0%

Question: What about the “Crop Injury (%)” value ([8]; 14 DAT, 2.0 kg/ha) of the same molecule?
Answer: 30%

Question: And the “Crop Injury (%)” value ([8]; 14 DAT, .25 kg/ha)?
Answer: 0%

Question: What about the “Crop Injury (%)” value ([8]; 14 DAT, .5 kg/ha) of the same molecule?
Answer: 0%

Question: What about the “Yield (% of H.W. Check)” value [9] of the same molecule?
Answer: 182% and 177% and 139% and 104% and 93% and 98% and 113%

Question: What about the “rice yield vs hand weeded check” value [9] of the same molecule?
Answer: statistically similar to the hand weeded check

Question: What about the yield in words [9] of the same molecule?
Answer: outstanding

Question: What about the “% Weed control, Broadleaf (Mv,Sz)” value ([10]; 5 DAT, 1.0 kg/ha) of the same molecule?
Answer: 100%

Question: What about the “% Weed control, Broadleaf (Mv,Sz)” value ([10]; 5 DAT, 2.0 kg/ha) of the same molecule?
Answer: 100%

Question: What about the “% Weed control, Broadleaf (Mv,Sz)” value ([10]; 5 DAT, .25 kg/ha) of the same molecule?
Answer: 100%

Question: And the “% Weed control, Broadleaf (Mv,Sz)” value ([10]; 5 DAT, .5 kg/ha)?
Answer: 100%

Question: What about the “% Weed control, Broadleaf (Mv,Sz)” value ([10]; 14 DAT, 1.0 kg/ha) of the same molecule?
Answer: 60%

Question: What about the “% Weed control, Broadleaf (Mv,Sz)” value ([10]; 14 DAT, 2.0 kg/ha) of the same molecule?
Answer: 60%

Question: And the “% Weed control, Broadleaf (Mv,Sz)” value ([10]; 14 DAT, .25 kg/ha)?
Answer: 0%

Question: And the “% Weed control, Broadleaf (Mv,Sz)” value ([10]; 14 DAT, .5 kg/ha)?
Answer: 60%
